# From patent publication US9114120B2, “Therapeutical method for the treatment of the Leber optic neuropathy” (SIGMA-TAU INDUSTRIE FARMACEUTICHE RIUNITE, S.P.A., priority 2010, dated 2015)
# System: Patients with LHON
# Experiment: Example 2: 12-month double blind, placebo controlled study of acetyl L-carnitine, visual acuity
# Assay type: in vivo, human
# Details: for Visual Acuity Change, Diff / Visual Acuity Recovery, Diff: ALC 2 g/day orally vs placebo
# From the text: 30 Patients with LHON were enrolled. To be eligible, participants were required to meet the following inclusion criteria: both sexes, age ≧20 years and ≦60 years, diagnosis of Leber's optic neuropathy assessed by the presence of at least one of the three most common LHON pathogenic mutations (11778/ND4, 3460/ND1, 14484/ND6), and duration of disease greater than 2 years.
# The study treatment trial was 12-month, double blind, placebo controlled with participants randomized to receive acetyl L-carnitine (2 g/day orally) or placebo.
# The primary efficacy end point for the study was the best recovery in visual acuity in either eye measured by change in logMAR (logarithm of Minimal Angle of Resolution) in study eyes comparing the acetyl-L-carnitine treatment group with the placebo treatment control group 6 and 12 months after enrolment. Secondary efficacy outcome was the patients' best visual acuity at 6 and 12 months compared to best visual acuity at baseline.
compound,measurement,setting,value
"CC(=O)O[C@H](CC(=O)[O-])C[N+](C)(C)C [ALC, acetyl-L-carnitine]","Visual Acuity Change, Diff","T6 (6 months), p < 0.05",Diff = 14 letters
same,"Visual Acuity Recovery, Diff","T6 (6 months), p < 0.05",Diff = 10 letters
same,"Visual Acuity Change, Diff","T12 (12 months), p < 0.01",Diff = 18 letters
same,"Visual Acuity Recovery, Diff","T12 (12 months), p < 0.01",Diff = 12 letters
same,improvement of visual acuity recovery (in words),"vs placebo, after 6 months (T6) and 12 months (T12)",significant difference in improvement
same,visual acuity of eyes (in words),"vs placebo, both time points T6 and T12",significantly improved
